Type in all cases: cell-based, P. putida
In one series the test system is J3 promoter. Put plainly: CRISPRa reporter gene activation, J3-BBa_J23117-mRFP. Particulars: for activation of mRFP: FIG. 4. The procedure:
Fluorescence measurements of reporter gene expression were carried out either by flow cytometry or plate reader. Single colonies from LB plates were inoculated in 500 µL of EZ-RDM (Teknova) supplemented with the appropriate antibiotics and grown in 96-deep-well plates at 30° C. with shaking overnight 225 rpm. For small-molecule induction, overnight cultures were diluted 100-fold into a new culture with appropriate antibiotics and inducers, then shaken overnight at 30° C., 225 rpm. For flow cytometry, overnight cultures were diluted 1:50 in Dulbecco’s phosphate-buffered saline (PBS) and analyzed on a MACSQuant VYB flow cytometer with the MACSQuantify 2.8 software (Miltenyi Biotec) using the methods and instruments settings as described (Dong et al., 2018. Synthetic CRISPR-Cas gene activators for transcriptional reprogramming in bacteria. Nat Commun 9, 2489). For plate reader measurements, 150 µL of overnight culture were transferred into a flat, clear-bottomed black 96-well plate. OD600 and fluorescence values were measured in a Biotek Synergy HTX plate reader and analyzed using the BioTek Gen5 2.07.17 software. For mRFP1 detection, the excitation wavelength was 540 nm and emission wavelength was 600 nm. For sfGFP detection, the excitation wavelength was 485 nm and the emission wavelength was 528 nm. Data were plotted using Prism (GraphPad).
Next, the 20 bp target sequence that is recognized by the scRNA was examined. The experiments described above were performed with the J1 promoter, which contains an array of 20 base target sites. An alternative promoter, termed J3, that has a different set of 20 base target sites was tested. […] Compared to the J1 promoter, where a 4-fold activation (J106 target site) was observed, the fold-activation with the J3 promoter increased to 34-fold (J306 target site) (FIG. 2D). For both J1 and J3, the CRISPRa-induced expression levels were similar. The large difference in fold-activation results from an unexpected difference in basal expression levels. The basal expression of J3-mRFP is 11-fold lower than that of J1-mRFP, which leads to much higher fold-activation. […]
With optimized expression levels and a delivery strategy for the CRISPRa system in P. putida in place, whether CRISPRa and CRISPRi can be used together to activate and repress multiple genes was tested. […] A dual scRNA/sgRNA cassette was inserted in this plasmid with a J306 scRNA for mRFP activation and an sgRNA that targets within the sfGFP open reading frame (ORF) for repression. […]

Another series deals with J3-GTPCH, J3-PTPS, J3-SR. Put plainly: biopterin pathway activation by CRISPRa, HPLC-MS. Conditions: J3-SR (pBBR1-GmR), relative to off-target scRNA, FIG. 6D.
The test system of the next series is J3-BBa_J23117-mvaES. As to the kind of experiment: mevalonate pathway activation by CRISPRa, GC-MS. Conditions: 13-mvaES (pBBR1-GmR); relative to off-target scRNA; FIG. 7B. The procedure:
For mevalonate production experiments, the GC-MS method was adapted from prior methods (Pfleger et al., 2007. Microbial sensors for small molecules: Development of a mevalonate biosensor. Metab. Eng. 9, 30-38). Single colonies from LB plates were inoculated in 500 µL of EZ-RDM (Teknova) supplemented with the appropriate antibiotics and grown in 96-deep-well plates at 30° C. with shaking overnight at 225 rpm. Overnight cultures were subcultured by 1:100 dilution into 3 mL of EZ-RDM media with 1% glucose as the carbon source, supplemented with the appropriate antibiotics, and shaken at 225 rpm for 72 hours at 30° C. After 72 hours, 560 µL of cell suspension was acidified with 140 µL of 0.5 M HCl and vortexed. 700 µL ethyl acetate was added and samples were then vortexed again vigorously for 3 minutes and centrifuged at maximum speed in a benchtop centrifuge (15,000 rcf) for 10 min. […] The temperature cycle started at 80° C. and was followed by a gradient of 20° C./min to 260° C., a second gradient of 40° C./min to 300° C., and a hold at 300° C. for 2 min. m/z = 71, the second most abundant peak corresponding to mevalonolactone, was used for quantitation (Pfleger et al., 2007. Microbial sensors for small molecules: Development of a mevalonate biosensor. Metab. Eng. 9, 30-38). […] The calculated concentration was adjusted by the addition of HCl. […]

Regarding “J306: scRNA, SEQ ID NO: 95, target TTGTGTCCAGAACGCTCCGT, J3 and J1(306) promoters, template strand, 81 to TSS (chemistry not given here)”, the Fold-change in the series on J3 promoter (J3-mRFP (integrated), dual reporters genomically-integrated, FIG. 15A) was 3-fold; with J3 promoter (J3-mRFP (pBBR1-GmR), dual mRFP/sfGFP reporter plasmid-bourne, FIG. 13) it was 41-fold. For the same substance, the “activation of mRFP” value in the series with J3 promoter (just a single scRNA delivered, weak mRFP/strong sfGFP dual-reporter plasmid) was 15 fold; with J3 promoter (simultaneous CRISPRa/CRISPRi, dual-reporter plasmid with sfGFP-repressing sgRNA), 6.6 fold. For the same substance, the “Fold-change, metabolite production” value was 5-fold in the series on J3-GTPCH, J3-PTPS, J3-SR and >40-fold in the series on J3-BBa_J23117-mvaES.

Values taken from patent publication US20230340440A1, “GENETIC MANIPULATION METHOD IN BACTERIA” (University of Washington, priority 2022, published 2023).
